Measurements as given in publication PMC10352257, “In vivo effects of the alpha-synuclein misfolding inhibitor minzasolmin supports clinical development in Parkinson’s disease” (NPJ Parkinson's Disease, 2023).
“Also recorded” adds a separate entry of the source. Read-outs that look alike come from different tables or passages of the source.

Assays:
[1] = Mouse pharmacokinetics after single intraperitoneal dose (plasma and brain); type: in vivo; settings: for AUC last / Cmax / AUC(0-t): mean ± SEM; for Kp / Tmax / half-life / Cmax / AUC(0-inf) / AUC(0-t): male, C57BL/6, mouse, ip; for Kp: brain and plasma, from AUCinf, read-out: brain/plasma exposure (AUC) ratio
Procedure: Characterization of exposure profile and brain distribution of minzasolmin in male C57BL/6 mice was performed at UCB BioPharma SPRL (Braine l’Alleud, Belgium). All the procedures were approved by the UCB Ethics Committee for Animal Experimentation and conducted in compliance with the Helsinki declaration and the guidelines of the European Community Council directive 86/609/EEC. UCB BioPharma is fully accredited by the Association for Assessment and Accreditation of Laboratory Animal Care (AAALAC). Male C57BL/6 mice (8 weeks of age, 20–27 g), purchased from Charles River Laboratories (Toulouse, France), were dosed intraperitoneally with 1 or 5 mg/kg of minzasolmin (10 mL/kg of 40% w/v Captisol® in water). Three mice were used per dose and per time of sampling (0.25, 0.5, 1, 2.5, and 6 h). Mice were anaesthetized with isofluorane and blood was collected from the vena cava into K2EDTA tubes. Animals were then perfused through the left ventricle with 20 mL of heparinized NaCl 0.9% (20 UI/mL), rate flow 20 mL/min, 1 min perfusion time. At the end of the procedure mice were sacrificed by cervical dislocation. Brain samples were weighed and collected in cold glass vials and stored at −20 °C, until bioanalysis. All blood samples were thoroughly but gently mixed following collection and placed directly on ice then centrifuged at 4 °C, 3000 g for 15 min within 30 min after sampling. The collected plasma was stored at −20 °C, until bioanalysis. Samples were analyzed by liquid chromatography-tandem mass spectrometry (LC-MS/MS). Results of minzasolmin concentrations in plasma and brain are reported in ng/mL and ng/g respectively. Pharmacokinetic profiling was performed by non-compartmental analysis, using Phoenix WinNonlin v6.4 software (Pharsight Inc., St. Louis, MO). All computations utilized the sparse sampling method according to the experimental composite sampling regimen.

total ASYN = test: Immunohistochemical evaluation of total ASYN in brain sections, 3-month study; type: in vivo, mouse; settings: for change in total ASYN immunolabeling vs vehicle-treated Line 61 transgenic mice: hippocampus and striatum (P < 0.0001); for total ASYN immunolabeling, mean: Line 61 tg, 3 months
Description: (§1) A transgenic mouse model of Parkinson’s disease overexpressing human wild-type ASYN under the murine Thy-1 promoter on a mixed C57Bl/6 background was used in the present studies (commonly referred to Line 61)[49]. The Line 61 transgenic mouse model of Parkinson’s disease develops extensive accumulation of ASYN in areas relevant to Parkinson’s disease[49]–[51], neurodegeneration (as evidenced by loss of tyrosine hydroxylase[52],[53] and dopamine transporter immunoreactivity[18] in the striatum), inflammation, and both motor and non-motor functional deficits. Multiple cohorts of mice were transferred from the University of California, San Diego to a Neuropore-funded AAALAC-accredited vivarium facility per a laboratory service agreement between Neuropore Therapies, Inc. and the laboratory of Dr. Eliezer Masliah under institutional animal care and use committee (IACUC) Protocol S02221. All in vivo testing was conducted by Neuropore personnel under Explora Biosciences animal care and use protocol (ACUP) number E15-016-2. Three-month-old male transgenic and age-matched non-transgenic littermate control mice were used and housed up to 5 per cage. Animals received free access to food and water prior to the experiment. The vivarium ambient room temperature was monitored daily and kept within a range of 68–72 degrees Fahrenheit. Animals were kept on a 12:12 diurnal light cycle, with lights on at 0600.
(§2) Minzasolmin was dissolved in a vehicle solution consisting of 40% Captisol (CyDex Pharmaceuticals, Inc.; Kansas, USA) in sterile water and administered at a volume of 0.1 ml/20 g of body weight. Animals received a Monday–Friday daily intraperitoneal injection of vehicle, or 1 or 5 mg/kg minzasolmin for approximately 90 days. Animals received treatment up to and including a final injection 1 h prior to euthanasia. All study solutions were blind coded and experimenters were blinded to genotype and treatment group assignments for the duration of the study, ex vivo evaluations (i.e., neuropathology sample processing and imaging, videotape scoring) and through penultimate data analyses (i.e., data quality control with documented exclusions prior to unblinding; unblinding required for a priori pairwise comparisons).
(§3) All subjects were euthanized within 1 h of the last treatment and brain and blood were collected. Tissue processing and imaging methods were conducted as described previously[17],[18],[52] and performed under a lab service agreement between UCSD and Neuropore Therapies. All samples were blind coded to genotype and treatment group throughout immune-histological processing and imaging. The right hemibrain was post-fixed in phosphate-buffered 4% paraformaldehyde (pH 7.4) at 4 °C for 48 and then serially sectioned into […] thick […] sections using a vibratome. Sections were free-floated and incubated overnight at 4 °C with primary antibodies. To confirm the specificity of primary antibodies, control experiments were performed in which sections were incubated overnight in the absence of primary antibody, pre-immune serum, or primary antibody pre-adsorbed for 48 h with 20-fold excess of the corresponding peptide. Tissue collection, processing, and imaging methods were conducted as described previously. Briefly, the right hemibrain was post-fixed in phosphate-buffered 4% paraformaldehyde (pH 7.4) at 4 °C for 48 h, and then serially sectioned into 40 µm thick coronal sections using a vibratome. Sections were free-floated and incubated overnight at 4 °C with primary antibodies. To confirm the specificity of primary antibodies, control experiments were performed in which sections were incubated overnight in the absence of primary antibody (data not shown). Immunolabeled sections were imaged with a Zeiss 63× (N.A. 1.4) objective on an Axiovert 35 microscope (Zeiss, Germany). Immunolabeling was evaluated as a corrected optical density across a field of view. […]

[2] = test system: proteinase K-resistant ASYN; test: Immunohistochemical evaluation of proteinase K-resistant ASYN in brain sections, 3-month study; type: in vivo, mouse; settings: for change in proteinase K-resistant ASYN immunolabeling vs vehicle-treated transgenic mice: striatum (P < 0.0001); for proteinase K-resistant ASYN immunolabeling, mean: Line 61 tg, 3 months, adjusted P <0.0001
Description: as §1, §2, §3

[3] = brain, 1 mg/kg single i.p., C57/Bl6 mice
[4] = brain, 5 mg/kg single i.p., C57/Bl6 mice
[5] = plasma, 1 mg/kg single i.p., C57/Bl6 mice
[6] = plasma, 5 mg/kg single i.p., C57/Bl6 mice

Work on CCCC[C@H](Cc1c[nH]c2ccccc12)NC(=O)c1cnc(N2CCN(C)CC2)s1 [minzasolmin] yielded an AUC inf [1, 3] of 99.0 ng·h/g, an AUC last [1, 3] of 93.9 ± 4.2 ng·h/g and an AUC inf [1, 4] of 422 ng·h/g. The AUC last [1, 4] was 394 ± 21 ng·h/g, the “time of highest brain levels after dosing” value ([1]; brain, 1 and 5 mg/kg i.p.) was 0.5 h and the Kp ([1]; 1 mg/kg i.p.) was 0.32. The Kp ([1]; 5 mg/kg i.p.) was 0.26, the Tmax ([1]; brain, 1 mg/kg, brain, 1 mg/kg single i.p., C57/Bl6 mice, read-out: T max) was 30 min and the Tmax ([1]; brain, 5 mg/kg, brain, 5 mg/kg single i.p., C57/Bl6 mice, read-out: T max) was 30 min. For the same compound, the half-life [1, 3] was 33.6 min, the Cmax [1, 3] was 76 ± 4 ng/g and the half-life [1, 4] was 36 min. For the same compound, the Cmax [1, 4] was 292 ± 30 ng/g, the AUC(0-inf) [1, 5] was 308 ng·h/mL and the half-life [1, 5] was 41.4 min. The AUC(0-t) [1, 5] was 307 ± 13 ng·h/mL, the Cmax [1, 5] was 332 ± 18 ng/mL and the AUC(0-inf) [1, 6] was 1650 ng·h/mL. The half-life [1, 6] was 49.8 min, the AUC(0-t) [1, 6] was 1640 ± 86 ng·h/mL and the Cmax [1, 6] was 1320 ± 124 ng/mL. It also gave a Tmax ([1]; plasma, 1 mg/kg, plasma, 1 mg/kg single i.p., C57/Bl6 mice, read-out: T max) of 30 min, a Tmax ([1]; plasma, 5 mg/kg, plasma, 5 mg/kg single i.p., C57/Bl6 mice, read-out: T max) of 15 min and a Tmax ([1]; plasma, 5 mg/kg, plasma, 1 and 5 mg/kg i.p., read-out: time of maximum plasma concentration after dosing) of 15 to 30 min. For the same compound, the “change in total ASYN immunolabeling vs vehicle-treated Line 61 transgenic mice” value (total ASYN; 1 mg/kg, cortex (P < 0.05)) was “statistically significant decreases; also recorded: statistically significant reductions”, the “change in total ASYN immunolabeling vs vehicle-treated Line 61 transgenic mice” value (total ASYN; 5 mg/kg, cortex) was “statistically significant decreases; also recorded: statistically significant reductions” and the “effect of dose on total ASYN, 5 mg/kg compared to 1 mg/kg” value (total ASYN; cortex (P < 0.05) and hippocampus (P < 0.01), unpaired two tailed t tests) was “greater reductions”. For the same compound, the “total ASYN immunolabeling, mean” value (total ASYN; cortex, 1 mg/kg, corrected optical density, Line 61 tg/Vehicle 352.8, adjusted P 0.0148) was 282.1, the “total ASYN immunolabeling, mean” value (total ASYN; cortex, 5 mg/kg, Line 61 tg/Vehicle 352.8, adjusted P <0.0001) was 232.8 and the “total ASYN immunolabeling, mean” value (total ASYN; hippocampus, 1 mg/kg, Line 61 tg/Vehicle 392.9, adjusted P <0.0001) was 286.7. The “total ASYN immunolabeling, mean” value (total ASYN; hippocampus, 5 mg/kg, Line 61 tg/Vehicle 392.9, adjusted P <0.0001) was 229.7, the “effect of dose on total ASYN, 1 vs. 5 mg/kg” value (total ASYN; striatum) was “no statistically significant effect” and the “total ASYN immunolabeling, mean” value (total ASYN; striatum, 1 mg/kg, Line 61 tg/Vehicle 365.3, adjusted P <0.0001) was 265.4. For the same compound, the “total ASYN immunolabeling, mean” value (total ASYN; striatum, 5 mg/kg, Line 61 tg/Vehicle 365.3, adjusted P <0.0001) was 245.5, the “change in proteinase K-resistant ASYN immunolabeling vs vehicle-treated transgenic mice” value ([2]; 1 mg/kg, cortex, hippocampus) was “statistically significant reductions; also recorded: statistically significant decreases” and the “change in proteinase K-resistant ASYN immunolabeling vs vehicle-treated transgenic mice” value ([2]; 5 mg/kg, cortex, hippocampus) was “statistically significant reductions; also recorded: statistically significant decreases”. The “effect of dose on proteinase K-resistant ASYN, 1 vs. 5 mg/kg” value ([2]; any examined region) was “no statistically significant effects”, the “proteinase K-resistant ASYN immunolabeling, mean” value ([2]; cortex, 1 mg/kg, Line 61 tg/Vehicle 242.5) was 180.6 and the “proteinase K-resistant ASYN immunolabeling, mean” value ([2]; cortex, 5 mg/kg, Line 61 tg/Vehicle 242.5) was 187.3. The “proteinase K-resistant ASYN immunolabeling, mean” value ([2]; hippocampus, 1 mg/kg, Line 61 tg/Vehicle 270.1) was 176.6, the “proteinase K-resistant ASYN immunolabeling, mean” value ([2]; hippocampus, 5 mg/kg, Line 61 tg/Vehicle 270.1) was 178.3 and the “proteinase K-resistant ASYN immunolabeling, mean” value ([2]; striatum, 1 mg/kg, Line 61 tg/Vehicle 266.7) was 176.1. For the same compound, the “proteinase K-resistant ASYN immunolabeling, mean” value ([2]; striatum, 5 mg/kg, Line 61 tg/Vehicle 266.7) was 182.2.
